These are literature values, as cited in patent US20050182029A1, “Metformin salts of lipophilic acids” (Sonus Pharmaceuticals, Inc., priority 2002, published 2005).

The conditions of data set [1]: healthy human subjects.

For `CN(C)C(=N)N=C(N)N` [metformin], the “maximum metformin plasma levels (Cmax)” value (controlled clinical trials, even at maximum doses) is at most 4000 ng/mL. For the same compound, where the note is “usual metformin doses and dosing schedules, reached within 24 to 48 hours”, the steady-state plasma concentration result is reported as “less than 1 ug/mL”. The colonic absorption entry in data set [1] is given as “poor colonic absorption”.
